# Experiments:
# Assay type in all cases: in vivo, human
# [1] = tested on: patients with eGFR <90 mL/min/1.73 m^2 for ≥3 months and hsCRP ≥2.0 mg/L; test: ANCHOR post-hoc (eGFR <90, hsCRP ≥2.0 mg/L): renal parameters; details: 4 g/day
# Protocol: CVD-related (e.g., atherogenic) parameters were analyzed in a post-hoc study of 152 patients from the multi-center, placebo-controlled, randomized double-blind, 12-week study described in Example 1. These 152 patients have reduced kidney reduced function (e.g., eGFR<90 mL/min/1.73 m^2 for ≥3 months) and hsCRP≥2.0 mg/L.
# [2] = tested on: patients with chronic kidney disease (eGFR <60 mL/min/1.73 m^2 for ≥3 months); test: ANCHOR post-hoc (CKD): renal parameters and TEAEs
# Protocol: (§1) CVD-related (e.g., atherogenic) parameters were analyzed in a post-hoc study of 55 patients from the multi-center, placebo-controlled, randomized double-blind, 12-week study described in Example 1. These 55 patients have chronic kidney disease (e.g., eGFR<60 mL/min/1.73 m^2 for ≥3 months). There was no lower limit of eGFR specified. Analysis: The median difference in percent change from baseline between 4 g/day of E-EPA and placebo for the primary efficacy variable and additional assessments were estimated using the Hodges-Lehmann method (P values from the Wilcoxon rank-sum test for treatment comparisons). Using the Hodges-Lehmann method, departures from normal distribution were observed; for normally distributed parameters, an analysis of covariance model was used with least squares (LS) means and standard errors (SE). Missing values were imputed using the last-observation-carried-forward method. For all post hoc analyses, the alpha for statistical significance was 0.05.
# [3] = tested on: patients with chronic kidney disease (eGFR <60 mL/min/1.73 m^2 for ≥3 months); test: ANCHOR post-hoc: lipid and lipoprotein parameters, oxidation and inflammation markers
# Protocol: CVD-related (e.g., atherogenic) parameters were analyzed in a post-hoc study of 55 patients from the multi-center, placebo-controlled, randomized double-blind, 12-week study described in Example 1. These 55 patients have chronic kidney disease (e.g., eGFR<60 mL/min/1.73 m^2 for ≥3 months). There was no lower limit of eGFR specified.
# Subjects: 19 patients were randomized to E-EPA and 36 patients were randomized to placebo. One patient in each group discontinued and was excluded from efficacy analyses (but not safety analyses). EPA levels in plasma and RBC were measured in 23 of the 55 patients. These measurements were taken on 7 of the patients randomized to E-EPA and on 16 of the patients that were randomized to the placebo.
# The primary objective of this post-hoc study, which is based on an intention to treat, was to determine if and how 4 g daily of >96% E-EPA affects patients with stage 3 chronic kidney disease (e.g., eGFR<60 mL/min/1.73 m^2 for ≥3 months). The secondary objective was to determine if and how 4 g daily of >96% E-EPA, compared to a placebo, affected CVD-related parameters in patients with a high risk of CVD and fasting TG levels ≥[…] and <500 mg/dL, despite LDL-C goal on statin therapy. These CVD-parameters include lipid levels, lipoprotein levels, and inflammatory markers, such as TC, LDL-C, HDL-C, VLDL-C, VLDL-TG, RLP-C, non-HDL-C, Apo B, Apo C-III, Lp-PLA, hsCRP, and ox-LDL, and in plasma and RBC EPA concentration. CVD-parameters were analyzed for median difference in percent change from baseline to week 12 in subjects receiving 4 g/day of E-EPA and those receiving the placebo.
# as §1, with “Analysis:” for “CVD-related (e.g., atherogenic) parameters were analyzed in a post-hoc study of 55 patients from the multi-center, placebo-controlled, randomized double-blind, 12-week study described in Example 1. These 55 patients have chronic kidney disease (e.g., eGFR<60 mL/min/1.73 m^2 for ≥3 months). There was no lower limit of eGFR specified. Analysis:”
# [4] = 4 g/day group, before treatment
# [5] = 4 g/day group (n = 17), before treatment
# [6] = 4 g/day, week 12, Hodges-Lehmann
structure (smiles),measurement,setting,value
"CC/C=C\C/C=C\C/C=C\C/C=C\C/C=C\CCCC(=O)OCC [E-EPA, ethyl eicosapentaenoate]",serum creatinine after 12 weeks,"[1]; before 0.9 mg/dL, no change",0.9 mg/dL
same,albumin after 12 weeks,"[1]; before 4.5 g/dL, no statistically significant change",4.4 g/dL
same,eGFR after 12 weeks,[1]; increase from 72.4,78.5 mL/min/1.73 m^2
same,"BUN at week 12, median (IQR)",[2]; 4 g/day,22.5 (11.0) mg/dL
same,"Nausea, nasopharyngitis, and arthralgia",[2]; 4 g/day,not reported by any patients
same,"eGFR at week 12, median (IQR)",[2]; 4 g/day,56.0 (12.9) mL/min/1.73 m^2
same,"serum creatinine at week 12, median (IQR)",[2]; 4 g/day,1.2 (0.4) mg/dL
same,"serum creatinine, BUN, or eGFR from baseline to week 12 compared to placebo",[2]; 4 g/day,did not produce significant changes
same,"BUN at baseline, median (IQR)",[2]; [4],24.5 (12.0) mg/dL
same,"eGFR at baseline, median (IQR)",[2]; [4],55.0 (13.8) mL/min/1.73 m^2
same,"serum creatinine at baseline, median (IQR)",[2]; [4],1.2 (0.3) mg/dL
same,patients with diarrhea,"[2]; 4 g/day, 2 patients",10.5%
same,patients with TEAE,"[2]; 4 g/day, 11 of 19 patients",57.9%
same,serum albumin,"[2]; 4 g/day, 12 weeks",no significant median changes from baseline
same,"eGFR, median difference in change from baseline compared with placebo","[2]; 4 g/day, P=0.1983",−7.8%
same,"serum creatinine, median difference in change from baseline compared with placebo","[2]; 4 g/day, P=0.1983",6.5%
same,"BUN, median difference in change from baseline compared with placebo","[2]; 4 g/day, P=0.5291",5.5%
same,"BUN, median difference in change from baseline compared with placebo","[2]; 4 g/day, P=0.5471",1.0 mg/dL
same,"Ox-LDL Baseline, median","[3]; 4 g/day group (n = 8), before treatment",48.6 u/L
same,"RLP-C Baseline, median","[3]; 4 g/day group (n = 9), before treatment",17.0 mg/dL
same,"Apo C-III Baseline, median","[3]; 4 g/day group (n = 13), before treatment",15.6 mg/dL
same,"Apo B Baseline, median",[3]; [5],87.0 mg/dL
same,"Lp-PLA2 Baseline, median",[3]; [5],173.0 ng/mL
same,"hsCRP Baseline, median",[3]; [5],1.9 mg/L
same,"TGs Baseline, median","[3]; 4 g/day group (n = 18), before treatment",268.5 mg/dL
same,"HDL-C Baseline, median",[3]; [4],35.0 mg/dL
same,"LDL-C Baseline, median",[3]; [4],76.0 mg/dL
same,"Non-HDL-C Baseline, median",[3]; [4],124.5 mg/dL
same,"TC Baseline, median",[3]; [4],159.5 mg/dL
same,"VLDL-C Baseline, median",[3]; [4],42.0 mg/dL
same,"VLDL-TGs Baseline, median",[3]; [4],194.0 mg/dL
same,reduction of TG compared to placebo,"[3]; 4 g/day, 12 weeks, P=0.007",at least 16.9%
same,median TGs reduction from baseline,"[3]; 4 g/day, CKD cohort",−16.9%
same,"Apo B Change From Baseline, %, median","[3]; 4 g/day, week 12",−7.2%
same,"Apo B End of Treatment, median","[3]; 4 g/day, week 12",83.0 mg/dL
same,"Apo C-III Change From Baseline, %, median","[3]; 4 g/day, week 12",−7.3%
same,"Apo C-III End of Treatment, median","[3]; 4 g/day, week 12",13.9 mg/dL
same,"HDL-C Change From Baseline, %, median","[3]; 4 g/day, week 12",0.9%
same,"HDL-C End of Treatment, median","[3]; 4 g/day, week 12",35.5 mg/dL
same,"LDL-C Change From Baseline, %, median","[3]; 4 g/day, week 12",−6.5%
same,"LDL-C End of Treatment, median","[3]; 4 g/day, week 12",70.5 mg/dL
same,"Lp-PLA2 Change From Baseline, %, median","[3]; 4 g/day, week 12",−12.7%
same,"Lp-PLA2 End of Treatment, median","[3]; 4 g/day, week 12",150.0 ng/mL
same,"Non-HDL-C Change From Baseline, %, median","[3]; 4 g/day, week 12",−8.4%
same,"Non-HDL-C End of Treatment, median","[3]; 4 g/day, week 12",116.0 mg/dL
same,"Ox-LDL Change From Baseline, %, median","[3]; 4 g/day, week 12",−9.5%
same,"Ox-LDL End of Treatment, median","[3]; 4 g/day, week 12",45.1 u/L
same,"TC Change From Baseline, %, median","[3]; 4 g/day, week 12",−8.1%
same,"TC End of Treatment, median","[3]; 4 g/day, week 12",151.5 mg/dL
same,"TGs Change From Baseline, %, median","[3]; 4 g/day, week 12",−17.1%
same,"TGs End of Treatment, median","[3]; 4 g/day, week 12",230.5 mg/dL
same,"VLDL-C Change From Baseline, %, median","[3]; 4 g/day, week 12",−16.3%
same,"VLDL-C End of Treatment, median","[3]; 4 g/day, week 12",36.5 mg/dL
same,"VLDL-TGs Change From Baseline, %, median","[3]; 4 g/day, week 12",−25.8%
same,"VLDL-TGs End of Treatment, median","[3]; 4 g/day, week 12",168.5 mg/dL
same,"hsCRP Change From Baseline, %, median","[3]; 4 g/day, week 12",−16.9%
same,"hsCRP End of Treatment, median","[3]; 4 g/day, week 12",2.1 mg/L
same,Apo B Median Difference in % Change From Baseline vs. Placebo,[3]; [6],"−18.7, 0.0002%"
same,Apo C-III Median Difference in % Change From Baseline vs. Placebo,[3]; [6],"−15.0, 0.0168%"
same,HDL-C Median Difference in % Change From Baseline vs. Placebo,[3]; [6],"−8.3, 0.0362%"
same,LDL-C Median Difference in % Change From Baseline vs. Placebo,[3]; [6],"−20.8, 0.0086%"
same,Lp-PLA2 Median Difference in % Change From Baseline vs. Placebo,[3]; [6],"−17.5, 0.0068%"
same,Non-HDL-C Median Difference in % Change From Baseline vs. Placebo,[3]; [6],"−21.5, <0.0001%"
same,Ox-LDL Median Difference in % Change From Baseline vs. Placebo,[3]; [6],"−25.7, 0.0068%"
same,RLP-C Median Difference in % Change From Baseline vs. Placebo,[3]; [6],"−38.8, 0.0295%"
same,TC Median Difference in % Change From Baseline vs. Placebo,[3]; [6],"−18.2, <0.0001%"
same,"TGs Median Difference in % Change From Baseline, Icosapent Ethyl 4 g/day vs. Placebo",[3]; [6],"−16.9, 0.0074%"
same,VLDL-C Median Difference in % Change From Baseline vs. Placebo,[3]; [6],"−28.7, 0.0026%"
same,VLDL-TGs Median Difference in % Change From Baseline vs. Placebo,[3]; [6],"−25.6, 0.0020%"
same,hsCRP Median Difference in % Change From Baseline vs. Placebo,"[3]; 4 g/day, week 12, Hodges-Lehmann, P 0.1209","−25.0, 0.1209%"
same,"RLP-C Change From Baseline, %, median","[3]; 4 g/day, week 12, n = 9",−38.9%
same,"RLP-C End of Treatment, median","[3]; 4 g/day, week 12, n = 9",10.0 mg/dL
